Test results published in patent US20260265238A1, “COMPOUNDS AND PHARMACEUTICAL COMPOSITIONS THAT DEGRADE SWI/SNF-RELATED MATRIX-ASSOCIATED ACTIN-DEPENDENT REGULATOR OF CHROMATIN SUBFAMILY A” (Plexium, Inc., priority 2023, published 2026).

Columns and labels:
[1] = biological target: T1, SMARCA4-HiBiT HeLa cells (protein which is expressed from the SMARCA4 gene) (Homo sapiens, UniProt P51532); assay: SMARCA4 degradation assay (HiBiT-fusion HeLa cell line, 24 h, luminescence); type: cell-based
T1 construct: protein which is expressed from the SMARCA2 and SMARCA4 genes; host or cells: HeLa (SMARCA4-HiBiT engineered line)
Procedure, shortened: (§1)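 In this 24-hour cellular degradation readout, HiBiT-tagged HeLa lines received compound at up to typically 10 μM down to 300 pM in 10 points. After lysis with LgBiT and substrate, luminescence signals were used to build dose-response curves for DC50.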

[2] = biological target: T2, SMARCA2-HiBiT HeLa cells (protein which is expressed from the SMARCA2 gene) (Homo sapiens, UniProt P51531); assay: SMARCA2 degradation assay (HiBiT-fusion HeLa cell line, 24 h, luminescence); type: cell-based
T2 construct: protein which is expressed from the SMARCA2 and SMARCA4 genes; host or cells: HeLa (SMARCA2-HiBiT engineered line)
Procedure, shortened: as §1

T2 sequence (P51531 whole entry, the tested form may be a part): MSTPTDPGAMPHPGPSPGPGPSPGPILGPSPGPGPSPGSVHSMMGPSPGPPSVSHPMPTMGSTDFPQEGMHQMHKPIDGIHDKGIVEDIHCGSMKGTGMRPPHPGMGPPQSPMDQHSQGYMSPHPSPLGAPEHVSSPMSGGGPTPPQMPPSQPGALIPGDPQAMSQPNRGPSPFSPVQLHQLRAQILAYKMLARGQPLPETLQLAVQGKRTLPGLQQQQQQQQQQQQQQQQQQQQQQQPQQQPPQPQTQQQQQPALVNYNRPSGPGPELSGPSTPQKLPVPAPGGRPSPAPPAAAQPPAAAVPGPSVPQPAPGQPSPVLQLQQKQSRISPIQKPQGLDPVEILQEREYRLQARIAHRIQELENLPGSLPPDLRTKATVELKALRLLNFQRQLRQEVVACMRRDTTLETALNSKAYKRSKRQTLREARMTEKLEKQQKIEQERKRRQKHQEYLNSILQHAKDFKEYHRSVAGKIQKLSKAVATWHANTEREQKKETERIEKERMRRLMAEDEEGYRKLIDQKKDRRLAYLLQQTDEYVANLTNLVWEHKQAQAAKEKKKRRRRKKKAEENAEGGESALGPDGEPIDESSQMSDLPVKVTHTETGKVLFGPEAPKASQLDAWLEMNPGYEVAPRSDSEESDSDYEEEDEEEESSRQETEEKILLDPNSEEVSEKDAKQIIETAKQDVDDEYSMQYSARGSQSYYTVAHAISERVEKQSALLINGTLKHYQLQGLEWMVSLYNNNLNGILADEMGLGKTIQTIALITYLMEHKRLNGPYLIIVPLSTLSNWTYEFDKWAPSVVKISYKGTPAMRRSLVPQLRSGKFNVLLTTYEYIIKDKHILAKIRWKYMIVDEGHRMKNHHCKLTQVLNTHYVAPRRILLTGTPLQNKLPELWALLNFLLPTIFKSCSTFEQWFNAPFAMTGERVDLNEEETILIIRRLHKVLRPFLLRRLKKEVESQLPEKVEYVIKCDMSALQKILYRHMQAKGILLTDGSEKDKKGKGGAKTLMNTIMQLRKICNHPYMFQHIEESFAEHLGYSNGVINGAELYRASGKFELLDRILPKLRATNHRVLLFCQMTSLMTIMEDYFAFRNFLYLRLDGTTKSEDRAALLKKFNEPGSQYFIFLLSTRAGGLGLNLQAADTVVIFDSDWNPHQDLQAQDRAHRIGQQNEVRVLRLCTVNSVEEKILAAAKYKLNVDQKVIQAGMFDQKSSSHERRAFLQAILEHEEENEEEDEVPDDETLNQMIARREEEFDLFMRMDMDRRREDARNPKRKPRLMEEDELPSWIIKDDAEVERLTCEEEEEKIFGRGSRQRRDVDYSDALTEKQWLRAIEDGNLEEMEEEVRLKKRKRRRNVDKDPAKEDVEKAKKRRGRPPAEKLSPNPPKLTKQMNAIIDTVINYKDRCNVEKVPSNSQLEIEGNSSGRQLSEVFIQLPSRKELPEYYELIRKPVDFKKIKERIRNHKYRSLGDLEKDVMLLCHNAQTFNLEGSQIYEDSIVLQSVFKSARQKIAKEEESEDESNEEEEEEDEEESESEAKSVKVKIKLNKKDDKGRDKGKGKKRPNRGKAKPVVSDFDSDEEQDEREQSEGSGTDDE
T1 sequence (P51532 whole entry, the tested form may be a part): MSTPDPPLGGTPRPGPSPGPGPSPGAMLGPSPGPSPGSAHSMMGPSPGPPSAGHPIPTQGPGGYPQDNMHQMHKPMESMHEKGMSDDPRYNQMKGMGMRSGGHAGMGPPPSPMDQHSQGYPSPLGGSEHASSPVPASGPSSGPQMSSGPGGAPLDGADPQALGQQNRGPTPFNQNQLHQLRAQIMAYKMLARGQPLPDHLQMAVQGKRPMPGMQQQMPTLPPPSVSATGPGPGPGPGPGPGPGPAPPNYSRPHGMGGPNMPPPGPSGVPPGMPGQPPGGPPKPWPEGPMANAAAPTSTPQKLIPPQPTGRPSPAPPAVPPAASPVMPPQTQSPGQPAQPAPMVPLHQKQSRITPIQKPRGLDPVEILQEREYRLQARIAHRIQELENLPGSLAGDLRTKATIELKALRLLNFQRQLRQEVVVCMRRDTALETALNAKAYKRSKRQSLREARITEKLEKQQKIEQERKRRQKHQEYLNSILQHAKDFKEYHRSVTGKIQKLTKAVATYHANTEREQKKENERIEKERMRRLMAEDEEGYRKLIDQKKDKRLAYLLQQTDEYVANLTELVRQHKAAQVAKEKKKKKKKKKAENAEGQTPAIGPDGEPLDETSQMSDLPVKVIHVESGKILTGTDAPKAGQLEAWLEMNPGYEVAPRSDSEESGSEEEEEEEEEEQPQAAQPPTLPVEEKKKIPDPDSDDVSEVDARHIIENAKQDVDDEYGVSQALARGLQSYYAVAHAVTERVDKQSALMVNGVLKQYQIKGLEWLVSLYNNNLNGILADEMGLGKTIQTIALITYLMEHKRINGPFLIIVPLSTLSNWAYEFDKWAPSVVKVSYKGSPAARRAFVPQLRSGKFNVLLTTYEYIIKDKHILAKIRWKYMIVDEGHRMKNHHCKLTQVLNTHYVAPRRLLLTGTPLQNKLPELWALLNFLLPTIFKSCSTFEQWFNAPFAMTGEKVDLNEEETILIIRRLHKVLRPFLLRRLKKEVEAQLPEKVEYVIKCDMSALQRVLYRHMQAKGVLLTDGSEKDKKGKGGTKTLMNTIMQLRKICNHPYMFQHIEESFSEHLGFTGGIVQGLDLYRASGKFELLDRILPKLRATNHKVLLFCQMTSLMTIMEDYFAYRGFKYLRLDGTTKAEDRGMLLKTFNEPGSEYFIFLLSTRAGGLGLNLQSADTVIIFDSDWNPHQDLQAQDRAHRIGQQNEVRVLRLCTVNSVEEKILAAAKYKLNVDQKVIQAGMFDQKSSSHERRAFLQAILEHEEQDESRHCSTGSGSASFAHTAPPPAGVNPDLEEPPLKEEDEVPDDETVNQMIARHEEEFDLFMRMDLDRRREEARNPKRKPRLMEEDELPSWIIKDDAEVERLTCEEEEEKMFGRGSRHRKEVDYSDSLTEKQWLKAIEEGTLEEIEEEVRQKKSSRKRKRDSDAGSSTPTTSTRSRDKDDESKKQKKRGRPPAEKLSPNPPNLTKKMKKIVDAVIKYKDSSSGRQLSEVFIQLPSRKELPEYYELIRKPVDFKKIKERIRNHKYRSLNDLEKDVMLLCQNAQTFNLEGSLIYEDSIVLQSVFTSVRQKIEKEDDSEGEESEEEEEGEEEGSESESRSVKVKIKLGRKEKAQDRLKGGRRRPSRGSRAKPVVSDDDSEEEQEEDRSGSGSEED

SMILES | DC50 [1] [nM] | inhibition at 1 µM ([1]; @ 1 μM) [%] | DC50 [2] [nM] | SMARCA2 % Degradation @ 1 μM ([2]; @ 1 μM) | inhibition at 1 µM ([1]; 1 μM) [%] | SMARCA2 % Degradation @ 1 μM ([2]; 1 μM) | SMARCA4 % Degradation @ 1 μM ([1]; @ 1 μM)
C[C@@H]1CCN(c2cc(-c3ccccc3O)nnc2N)CCN1c1ccnc(C#CCN2CC[C@H](F)C2)n1 [Compound P-244, o-{5-[(R)-4-(2-{3-[(S)-3-fluoro-1-pyrrolidinyl]-1-propynyl}-4-pyrimidinyl)-5-methyl-1,4-diazepan-1-yl]-6-amino-3-pyridaziny1}phenol] | < 50 | 30 to 70 | < 50 | ++ (++=30-70%) |  |  | 
COC1CCN(CC#Cc2nccc(N3CCCN(c4cc(-c5ccccc5O)nnc4N)CC3)n2)CC1 [Compound P-378, 0-[6-amino-5-(4-{2-[3-(4-methoxy-1-piperidyl)-1-propynyl]-4-pyrimidinyl}-1,4-diazepan-1-yl)-3-pyridazinyl]phenol] | 50 to 500 | 30 to 70 | 50 to 500 | +++ (+++=>70%) |  |  | 
Nc1nnc(-c2ccccc2O)cc1N1CCN(c2ccnc(C#CCNC(=O)c3cc4n(n3)CCOC4)n2)CC1 [Compound P-58, N-(3-(4-(4-(3-amino-6-(2-hydroxyphenyl)pyridazin-4-yl)piperazin-1-yl)pyrimidin-2-yl)prop-2-yn-1-yl)-6,7-dihydro-4H-pyrazolo[5,1-c][1,4]oxazine-2-carboxamide] | 50 to 500 | 30 to 70 | 50 to 500 | ++ (++=30-70%) |  |  | 
Nc1nnc(-c2ccccc2O)cc1N1CCCN(c2ccnc(C#CCn3ccc(-c4ccccn4)n3)n2)CC1 [Compound P-138, 2-(6-amino-5-(4-(2-(3-(3-(pyridin-2-yl)-1H-pyrazol-1-yl)prop-1-yn-1-yl)pyrimidin-4-yl)-1,4-diazepan-1-yl)pyridazin-3-yl)phenol] | 50 to 500 | 30 to 70 | 50 to 500 | +++ (+++=>70%) |  |  | 
Nc1nnc(-c2ccccc2O)cc1N1C[C@H]2C[C@@H]1CN2c1ccnc(C#CCNC(=O)c2cc3ncccn3n2)n1 [Compound P-25, N-(3-(4-((1R,4R)-5-(3-amino-6-(2-hydroxyphenyl)pyridazin-4-yl)-2,5-diazabicyclo[2.2.1]heptan-2-yl)pyrimidin-2-yl)prop-2-yn-1-yl)pyrazolo[1,5-a]pyrimidine-2-carboxamide] | 50 to 500 | > 70 | 50 to 500 | +++ (+++=>70%) |  |  | 
CC(C)(C)OC(=O)NCC#Cc1nccc(NC2CN(c3cc(-c4ccccc4O)nnc3N)C2)n1 [Compound P-307, 4-(3-{2-[3-(tert-butoxycarbonylamino)-1-propynyl]-4-pyrimidinylamino}-1-azetidinyl)-6-(o-hydroxyphenyl)-3-pyridazinamine] | 50 to 500 | 30 to 70 | 50 to 500 | ++ (++=30-70%) |  |  | 
Nc1nnc(-c2ccccc2O)cc1N1CCCN(c2ccnc(/C=C/CNC(=O)c3cc4ncccn4n3)n2)CC1 [Compound P-112, (E)-N-(3-(4-(4-(3-amino-6-(2-hydroxyphenyl)pyridazin-4-yl)-1,4-diazepan-1-yl)pyrimidin-2-yl)allyl)pyrazolo[1,5-a]pyrimidine-2-carboxamide] | 50 to 500 | > 70 | 50 to 500 | +++ (+++=>70%) |  |  | 
CC(C#Cc1nccc(N2CCN(c3cc(-c4ccccc4O)nnc3N)CC[C@H]2C)n1)N(C)C (stereo partly drawn) [Compound P-254, o-{5-[(R)-4-{2-[3-(dimethylamino)-1-butynyl]-4-pyrimidinyl}-5-methyl-1,4-diazepan-1-yl]-6-amino-3-pyridazinyl}phenol] | < 50 | 30 to 70 | < 50 | ++ (++=30-70%) |  |  | 
Nc1nnc(-c2ccccc2O)cc1N1CCCN(c2ccnc(C#CCn3cncn3)n2)CC1 [Compound P-148, 2-(5-(4-(2-(3-(1H-1,2,4-triazol-1-yl)prop-1-yn-1-yl)pyrimidin-4-yl)-1,4-diazepan-1-yl)-6-aminopyridazin-3-yl)phenol] | 50 to 500 | 30 to 70 | 50 to 500 | +++ (+++=>70%) |  |  | 
Nc1nnc(-c2ccccc2O)cc1N1C[C@H]2CN(c3ccnc(C#CCN4CC(F)(F)C4)n3)C[C@H]2C1 [Compound P-180] | < 50 | 30 to 70 | < 50 | ++ (++=30-70%) |  |  | 
Nc1nnc(-c2ccccc2O)cc1N1CCCN(c2ccnc(C#CCNCCF)n2)CC1 [Compound P-258, o-[6-amino-5-(4-{2-[3-(2-fluoroethylamino)-1-propynyl]-4-pyrimidinyl}-1,4-diazepan-1-yl)-3-pyridazinyl]phenol] | 500 to 5000 | 30 to 70 | 500 to 5000 | ++ (++=30-70%) |  |  | 
Nc1nnc(-c2ccccc2O)cc1N1CCCN(c2ccnc(C#CCN3C[C@H]4C[C@@H]3CO4)n2)CC1 [Compound P-376, 0-(5-{4-[2-(3-{(1R,4R)-2-oxa-5-azabicyclo[2.2.1]hept-5-y1}-1-propynyl)-4-pyrimidinyl]-1,4-diazepan-1-y1}-6-amino-3-pyridazinyl)phenol] | 500 to 5000 | 30 to 70 | 50 to 500 | ++ (++=30-70%) |  |  | 
C[C@@H]1CCN(c2cc(-c3ccccc3O)nnc2N)CCN1c1cc(C#CCn2ccnc2)ncc1F [Compound P-417, 0-{5-[(R)-4-{5-fluoro-2-[3-(1-imidazolyl)-1-propynyl]-4-pyridyl}-5-methyl-1,4-diazepan-1-yl]-6-amino-3-pyridazinyl} phenol] | 50 to 500 |  | 50 to 500 |  | 30 to 70 | ++ (++=30-70%) | 
C[C@@H]1CCN(c2cc(-c3ccccc3O)nnc2N)CCN1c1ccnc(C#CCN2CCOCC2)n1 [Compound P-334, 0-(5-{(R)-5-methyl-4-[2-(3-morpholino-1-propynyl)-4-pyrimidinyl]-1,4-diazepan-1-yl}-6-amino-3-pyridazinyl)phenol] | 50 to 500 | < 30 | 50 to 500 | ++ (++=30-70%) |  |  | 
Nc1nnc(-c2ccccc2O)cc1N1CCCN(c2ccnc(C#CCN3C(=O)c4ccccc4C3=O)n2)CC1 [Compound P-375, 2-[3-(4-{4-[3-amino-6-(o-hydroxyphenyl)-4-pyridaziny1]-1,4-diazepan-1-yl}-2-pyrimidinyl)-2-propynyl]-1,3-isoindolinedione] | 50 to 500 |  | 50 to 500 | +++ (+++=>70%) |  |  | ++ (++=30-70%)
CC(C)(O)C#Cc1nccc(N2CCCN(c3cc(-c4ccccc4O)nnc3N)CC2)n1 [Compound P-341, 4-(4-{4-[3-amino-6-(0-hydroxyphenyl)-4-pyridaziny1]-1,4-diazepan-1-yl}-2-pyrimidinyl)-2-methyl-3-butyn-2-ol] | 500 to 5000 | < 30 | 500 to 5000 | ++ (++=30-70%) |  |  | 
C[C@@H]1CCN(c2cc(-c3ccccc3O)nnc2N)CCN1c1ccnc(C#CC2CN(C)C2)n1 [Compound P-192, o-{5-[(R)-5-methyl-4-{2-[2-(1-methyl-3-azetidinyl)ethynyl]-4-pyrimidinyl}-1,4-diazepan-1-y1]-6-amino-3-pyridaziny1} phenol] | 50 to 500 | 30 to 70 | < 50 | +++ (+++=>70%) |  |  | 
C[C@@H]1CCN(c2cc(-c3ccccc3O)nnc2N)CCN1c1ccnc(/C=C/CN2CCOCC2)n1 [Compound P-167, o-(5-{(R)-5-methyl-4-[2-(3-morpholino-1-propenyl)-4-pyrimidinyl]-1,4-diazepan-1-y1}-6-amino-3-pyridazinyl)phenol] | < 50 | < 30 | < 50 | ++ (++=30-70%) |  |  | 
CS(=O)(=O)N1CCC(C#Cc2nccc(N3CCCN(c4cc(-c5ccccc5O)nnc4N)CC3)n2)CC1 [Compound P-352, 0-[6-amino-5-(4-{2-[2-(1-mesyl-4-piperidyl)ethynyl]-4-pyrimidinyl}-1,4-diazepan-1-yl)-3-pyridazinyl]phenol] | 500 to 5000 | 30 to 70 | 500 to 5000 | ++ (++=30-70%) |  |  | 
Nc1nnc(-c2ccccc2O)cc1N1CCN(c2ccnc(C#CCNC(=O)c3cc4ncccn4n3)n2)C2CC21 (stereo not shown) [Compound P-28, N-(3-(4-(5-(3-amino-6-(2-hydroxyphenyl)pyridazin-4-yl)-2,5-diazabicyclo[4.1.0]heptan-2-yl)pyrimidin-2-yl)prop-2-yn-1-yl)pyrazolo[1,5-a]pyrimidine-2-carboxamide] | < 50 | 30 to 70 | 50 to 500 | ++ (++=30-70%) |  |  | 
CC(C)OCC#Cc1cc(N2CCN(c3cc(-c4ccccc4O)nnc3N)CC[C@H]2C)ccn1 [Compound P-383, 0-(5-{(R)-4-[2-(3-isopropoxy-1-propynyl)-4-pyridyl]-5-methyl-1,4-diazepan-1-yl}-6-amino-3-pyridazinyl)phenol] | < 50 |  | < 50 |  | 30 to 70 | +++ (+++=>70%) | 
CNc1cc(N2CCCN(c3cc(-c4ccccc4O)nnc3N)CC2)nc(C#CCNC(=O)c2nn(C)c(C)c2C)n1 [Compound P-141, N-(3-(4-(4-(3-amino-6-(2-hydroxyphenyl)pyridazin-4-yl)-1,4-diazepan-1-yl)-6-(methylamino)pyrimidin-2-yl)prop-2-yn-1-yl)-1,4,5-trimethyl-1H-pyrazole-3-carboxamide] | 500 to 5000 | 30 to 70 | 500 to 5000 | ?? |  |  | 
